Our source for the Activity values is ChEMBL document CHEMBL1158895, “Tartrolone C: a novel insecticidal macrodiolide produced by Streptomyces sp. CP1130” (2003).

One experiment relates to Spodoptera exigua. Description: Antilepidopteran activity against beet armyworm eggs assessed as minimum emergent larvicide concentration after 6 to 7 days. The class given is functional.
In another experiment the test system is Heliothis virescens. The experiment in a line: Antilepidopteran activity against tobacco budworm eggs assessed as minimum emergent larvicide concentration after 6 to 7 days. The class given is functional.

Regarding `CC[C@H]1CCC[C@H](O[C@H]2CC[C@H](N(C)C)[C@@H](C)O2)[C@@H](C)C(=O)C2=C[C@@H]3[C@@H](C=C[C@@H]4C[C@@H](O[C@@H]5O[C@@H](C)[C@H](OC)[C@@H](OC)[C@H]5OC)C[C@@H]34)[C@@H]2CC(=O)O1` [SPINOSYN A], the Activity is 3 ppm in the experiment on Spodoptera exigua and 0.4 ppm in the experiment on Heliothis virescens.
For the molecule `C[C@@H]1C(=O)C[C@@H](O)CC/C=C/C=C\CC[C@H](C)OC(=O)[C@@H]2O[B-]34O[C@@H](C(=O)O[C@@H](C)CC/C=C\C=C\CC[C@H](O)CC(=O)[C@@H](C)[C@@H]5CC[C@](C)(O)[C@]2(O5)O3)[C@@]2(O[C@H]1CC[C@]2(C)O)O4` [TARTROLON C], the Activity in the experiment on Spodoptera exigua and in the experiment on Heliothis virescens was 125 ppm in each case.
